Results taken from patent publication US12679878B2, “CRF2 receptor agonists and their use in therapy” (SANOFI, priority 2020, dated 2026).
Starred links: 1 amine or outer side, 2 acyl side, 3 side chain; linkers in the order of their positions; H or OH if unused. Non-standard residues stand in square brackets, D forms with d. Residues, ends and D or L forms follow the SMILES beside them. Groups on a side chain read outwards from the residue. *: point of attachment. C16 diacid = O=C(O)CCCCCCCCCCCCCCC(=O)*; γGlu = O=C(O)[C@H](CCC(=O)[*:2])N[*:1]; Palmitoyl = CCCCCCCCCCCCCCCC(=O)*; Aib = CC(C)(N)C(=O)O

Legend:
human CRF2α receptor = molecular target: T1, human CRF2α receptor (Homo sapiens, UniProt Q13324); test: cAMP agonism at human CRF2α receptor in TeloHEAC cells, FA modified peptides (Example 19.9); assay type: cell-based; conditions: 0% HSA, relative to urocortin 2
T1 construct: expressed in transfected cells; host or cells: TeloHEAC
T1 sequence (Q13324 1-411): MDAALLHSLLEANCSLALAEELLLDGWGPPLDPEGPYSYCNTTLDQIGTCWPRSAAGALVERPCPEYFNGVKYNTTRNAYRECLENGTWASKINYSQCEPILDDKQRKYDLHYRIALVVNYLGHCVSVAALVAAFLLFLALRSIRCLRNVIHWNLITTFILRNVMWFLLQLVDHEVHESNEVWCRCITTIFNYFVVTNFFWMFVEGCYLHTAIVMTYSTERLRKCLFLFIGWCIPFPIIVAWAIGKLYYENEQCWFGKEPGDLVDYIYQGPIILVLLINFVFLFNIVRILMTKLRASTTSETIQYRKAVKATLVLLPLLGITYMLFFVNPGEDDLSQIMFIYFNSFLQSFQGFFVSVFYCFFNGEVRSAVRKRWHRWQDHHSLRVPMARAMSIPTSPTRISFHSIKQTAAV
Method in brief: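 Efficacy and EC50 are referenced to 100 nM urocortin 2 as 100%, with cAMP measured as the 665/620 nm HTRF ratio after 1 h at room temperature. Compounds (0.5 mM DMSO stock, 16 twofold dilutions) acted 30 min at 37 °C on CRF2α-expressing TeloHEAC cells, buffer containing IBMX and 0% or 0.2% HSA.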

CRF1R receptor = molecular target: T2, CRF1R receptor (Homo sapiens, UniProt P34998); test: cAMP activity at anti-target CRF1R, CHO-K1 cell line clone 2 (Example 19.10); assay type: cell-based; conditions: for CRF1/CRF2 ratio: ratio of CRF1 EC50 to CRF2 EC50
T2 construct: host or cells: CHO-K1 clone 2
T2 sequence (P34998 24-415): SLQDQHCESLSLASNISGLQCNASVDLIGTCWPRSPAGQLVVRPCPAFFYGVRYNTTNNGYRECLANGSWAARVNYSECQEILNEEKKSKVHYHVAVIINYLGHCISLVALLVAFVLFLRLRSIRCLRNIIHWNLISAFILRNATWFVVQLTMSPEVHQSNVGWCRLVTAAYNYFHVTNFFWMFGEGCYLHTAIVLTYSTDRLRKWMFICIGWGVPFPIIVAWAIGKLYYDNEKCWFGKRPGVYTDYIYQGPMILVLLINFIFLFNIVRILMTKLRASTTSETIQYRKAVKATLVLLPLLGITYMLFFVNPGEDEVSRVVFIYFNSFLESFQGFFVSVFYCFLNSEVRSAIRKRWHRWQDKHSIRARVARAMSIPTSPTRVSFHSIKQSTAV
Method in brief: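 A CRF1R-overexpressing CHO-K1 line (clone 2) was grown in F12/10% FBS/G418 and frozen in aliquots before use. The cAMP assay followed the preceding procedure, with 100% activation defined by Sauvagine at 100 nM.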

SMILES	EC50 (human CRF2α receptor) [nM]	CRF1/CRF2 ratio (CRF1R receptor)	EC50 (CRF1R receptor; 0% HSA, CRF1R CHO-K1 clone 2, read-out: EC50 [nM] 0% HSA) [nM]	Emax (CRF1R receptor; 100% = Sauvagine at 100 nM, CRF1R CHO-K1 clone 2) [%]
CCCCCCCCCCCCCCCC(=O)N[C@@H](CCC(=O)NCCCC[C@H](NC(=O)[C@H](CC(C)C)NC(=O)[C@H](CCCCN)NC(=O)[C@@H](NC(=O)[C@@H]1CCCN1C(=O)[C@H](NC(=O)[C@H](CC(=O)O)NC(=O)[C@H](CC(C)C)NC(=O)[C@H](CO)NC(=O)[C@H](CC(C)C)NC(=O)[C@@H](NC(=O)[C@@H](N)[C@@H](C)CC)C(C)C)C(C)C)[C@@H](C)CC)C(=O)N[C@@H](CCC(N)=O)C(=O)N[C@H](C(=O)N[C@@H](CC(C)C)C(=O)N[C@@H](CC(C)C)C(=O)N[C@@H](CCCCN)C(=O)N[C@@H](CCC(N)=O)C(=O)N[C@@H](CCC(=O)O)C(=O)N[C@@H](CCCNC(=N)N)C(=O)N[C@@H](CCC(N)=O)C(=O)N[C@@H](CCCCN)C(=O)N[C@@H](CCCCN)C(=O)N[C@@H](CCC(N)=O)C(=O)N[C@@H](CCCNC(=N)N)C(=O)N[C@@H](CCC(N)=O)C(=O)N[C@@H](CCC(N)=O)C(=O)N[C@@H](C)C(=O)N[C@@H](CCC(=O)O)C(=O)N[C@@H](CCCCN)C(=O)N[C@@H](CC(N)=O)C(=O)N[C@@H](CCCCN)C(=O)N[C@@H](CCC(N)=O)C(=O)N[C@H](C(=O)N[C@@H](CC(C)C)C(=O)N[C@@H](C)C(=O)N[C@@H](CCC(N)=O)C(=O)N[C@H](C(N)=O)C(C)C)[C@@H](C)CC)[C@@H](C)CC)C(=O)O [compound 214] (H-IVLSLD[dV]PIKLK([γGlu-Palmitoyl])QILLKQERQKKQRQQAEKNKQILAQV-NH2; N-terminus assumed)	4.15	1	–	–
CCCCCCCCCCCCCCCC(=O)N[C@@H](CCC(=O)NCCCC[C@H](NC(=O)[C@H](CC(C)C)NC(=O)CNC(=O)[C@@H](NC(=O)[C@@H]1CCCN1C(=O)[C@H](NC(=O)[C@H](CC(=O)O)NC(=O)[C@H](CC(C)C)NC(=O)[C@H](CO)NC(=O)[C@H](CC(C)C)NC(=O)[C@@H](NC(=O)[C@@H](N)[C@@H](C)CC)C(C)C)C(C)C)[C@@H](C)CC)C(=O)N[C@@H](CCC(N)=O)C(=O)N[C@H](C(=O)N[C@@H](CC(C)C)C(=O)N[C@@H](CC(C)C)C(=O)N[C@@H](CCCCN)C(=O)N[C@@H](CCC(N)=O)C(=O)N[C@@H](CCC(=O)O)C(=O)N[C@@H](CCCNC(=N)N)C(=O)N[C@@H](CCC(N)=O)C(=O)N[C@@H](CCCCN)C(=O)N[C@@H](CCCCN)C(=O)NC(C)(C)C(=O)N[C@@H](CCCNC(=N)N)C(=O)N[C@@H](CCC(=O)O)C(=O)N[C@@H](CCC(N)=O)C(=O)N[C@@H](C)C(=O)N[C@@H](CCC(=O)O)C(=O)N[C@@H](CCCCN)C(=O)N[C@@H](CC(N)=O)C(=O)N[C@@H](CCCCN)C(=O)N[C@@H](CCCNC(=N)N)C(=O)N[C@H](C(=O)N[C@@H](CC(C)C)C(=O)N[C@@H](CCC(=O)O)C(=O)N[C@@H](CCCNC(=N)N)C(=O)N[C@H](C(N)=O)C(C)C)[C@@H](C)CC)[C@@H](C)CC)C(=O)O [compound 218] (H-IVLSLD[dV]PIGLK([γGlu-Palmitoyl])QILLKQERQKK[Aib]REQAEKNKRILERV-NH2)	1.58	4	–	–
CC[C@H](C)[C@H](N)C(=O)N[C@H](C(=O)N[C@@H](CC(C)C)C(=O)N[C@@H](CO)C(=O)N[C@@H](CC(C)C)C(=O)N[C@@H](CC(=O)O)C(=O)N[C@@H](C(=O)N1CCC[C@H]1C(=O)N[C@H](C(=O)N[C@@H](CCCCN)C(=O)N[C@@H](CC(C)C)C(=O)N[C@@H](CCCCNC(=O)CC[C@H](NC(=O)CCCCCCCCCCCCCCC(=O)O)C(=O)O)C(=O)N[C@@H](CCC(N)=O)C(=O)N[C@@H](CCCCN)C(=O)N[C@@H](CC(C)C)C(=O)N[C@@H](CC(C)C)C(=O)N[C@@H](CCCCN)C(=O)N[C@@H](CCC(N)=O)C(=O)N[C@@H](CCC(=O)O)C(=O)N[C@@H](CCCNC(=N)N)C(=O)N[C@@H](CCC(N)=O)C(=O)N[C@@H](CCCNC(=N)N)C(=O)N[C@@H](CCCCN)C(=O)N[C@@H](CCC(=O)O)C(=O)N[C@@H](CCCNC(=N)N)C(=O)N[C@@H](CCC(=O)O)C(=O)N[C@@H](CCC(N)=O)C(=O)N[C@@H](C)C(=O)N[C@@H](CCC(=O)O)C(=O)N[C@@H](CCCCN)C(=O)N[C@@H](CC(N)=O)C(=O)N[C@@H](C)C(=O)N[C@@H](CCCNC(=N)N)C(=O)N[C@H](C(=O)N[C@@H](CC(C)C)C(=O)N[C@@H](C)C(=O)N[C@@H](CCCNC(=N)N)C(=O)N[C@H](C(N)=O)C(C)C)[C@@H](C)CC)[C@@H](C)O)C(C)C)C(C)C [compound 221] (H-IVLSLD[dV]PTKLK([γGlu-C16 diacid])QKLLKQERQRKEREQAEKNARILARV-NH2; N-terminus assumed)	2.71	–	> 100	3.2

Other lines, results leading:

EC50 (human CRF2α receptor) [nM]	CRF1/CRF2 ratio (CRF1R receptor)	EC50 (CRF1R receptor; 0% HSA, CRF1R CHO-K1 clone 2, read-out: EC50 [nM] 0% HSA) [nM]	Emax (CRF1R receptor; 100% = Sauvagine at 100 nM, CRF1R CHO-K1 clone 2) [%]	SMILES
5.98	2	–	–	CCCCCCCCCCCCCCCC(=O)N[C@@H](CCC(=O)NCCCC[C@H](NC(=O)[C@H](CC(C)C)NC(=O)[C@H](CCCCN)NC(=O)[C@@H](NC(=O)[C@@H]1CCCN1C(=O)[C@H](NC(=O)[C@H](CC(=O)O)NC(=O)[C@H](CC(C)C)NC(=O)[C@H](CO)NC(=O)[C@H](CC(C)C)NC(=O)[C@@H](NC(=O)[C@@H](N)[C@@H](C)CC)C(C)C)C(C)C)[C@@H](C)CC)C(=O)N[C@@H](CCC(N)=O)C(=O)N[C@H](C(=O)N[C@@H](CC(C)C)C(=O)N[C@@H](CC(C)C)C(=O)N[C@@H](CCCCN)C(=O)N[C@@H](CCC(N)=O)C(=O)N[C@@H](C)C(=O)N[C@@H](CCCNC(=N)N)C(=O)N[C@@H](CCC(N)=O)C(=O)N[C@@H](CCCCN)C(=O)NC(C)(C)C(=O)N[C@@H](CCC(N)=O)C(=O)N[C@@H](CCCNC(=N)N)C(=O)N[C@@H](C)C(=O)N[C@@H](CCC(N)=O)C(=O)N[C@@H](C)C(=O)N[C@@H](CCC(=O)O)C(=O)N[C@@H](CCCCN)C(=O)N[C@@H](CC(N)=O)C(=O)N[C@@H](CCCCN)C(=O)N[C@@H](CCCNC(=N)N)C(=O)N[C@H](C(=O)N[C@@H](CC(C)C)C(=O)N[C@@H](CCC(=O)O)C(=O)N[C@@H](CCCNC(=N)N)C(=O)N[C@H](C(N)=O)C(C)C)[C@@H](C)CC)[C@@H](C)CC)C(=O)O [compound 219] (H-IVLSLD[dV]PIKLK([γGlu-Palmitoyl])QILLKQARQK[Aib]QRAQAEKNKRILERV-NH2)
1.48	6	–	–	CCCCCCCCCCCCCCCC(=O)N[C@@H](CCC(=O)NCCCC[C@H](NC(=O)[C@H](CC(C)C)NC(=O)CNC(=O)[C@@H](NC(=O)[C@@H]1CCCN1C(=O)[C@H](NC(=O)[C@H](CC(=O)O)NC(=O)[C@H](CC(C)C)NC(=O)[C@H](CO)NC(=O)[C@H](CC(C)C)NC(=O)[C@@H](NC(=O)[C@@H](N)[C@@H](C)CC)C(C)C)C(C)C)[C@@H](C)CC)C(=O)N[C@@H](CCC(N)=O)C(=O)N[C@H](C(=O)N[C@@H](CC(C)C)C(=O)N[C@@H](CC(C)C)C(=O)N[C@@H](CCCCN)C(=O)N[C@@H](CCC(N)=O)C(=O)N[C@@H](CCC(=O)O)C(=O)N[C@@H](CCCNC(=N)N)C(=O)N[C@@H](CCC(N)=O)C(=O)N[C@@H](CCCCN)C(=O)N[C@@H](CCCCN)C(=O)NC(C)(C)C(=O)N[C@@H](CCCNC(=N)N)C(=O)N[C@@H](CCC(N)=O)C(=O)N[C@@H](CCC(N)=O)C(=O)N[C@@H](C)C(=O)N[C@@H](CCC(=O)O)C(=O)N[C@H](C(=O)N[C@@H](CC(N)=O)C(=O)N[C@@H](CCCCN)C(=O)N[C@@H](CCCNC(=N)N)C(=O)N[C@H](C(=O)N[C@@H](CC(C)C)C(=O)N[C@@H](CCC(=O)O)C(=O)N[C@@H](CCCNC(=N)N)C(=O)N[C@H](C(N)=O)C(C)C)[C@@H](C)CC)[C@@H](C)O)[C@@H](C)CC)C(=O)O [compound 220] (H-IVLSLD[dV]PIGLK([γGlu-Palmitoyl])QILLKQERQKK[Aib]RQQAETNKRILERV-NH2; N-terminus assumed)
